Measured values taken from patent publication US8129402B2 (priority 2002, dated 2012).

Target: PrP^sc in ScN2a-22L cells (Mus musculus, UniProt P04925)
Format: cell-based
Conditions: ScN2a-22L cells, NIH Image J quantification

PrP^sc in ScN2a-22L cells, sequence (P04925 23-230 limits assumed): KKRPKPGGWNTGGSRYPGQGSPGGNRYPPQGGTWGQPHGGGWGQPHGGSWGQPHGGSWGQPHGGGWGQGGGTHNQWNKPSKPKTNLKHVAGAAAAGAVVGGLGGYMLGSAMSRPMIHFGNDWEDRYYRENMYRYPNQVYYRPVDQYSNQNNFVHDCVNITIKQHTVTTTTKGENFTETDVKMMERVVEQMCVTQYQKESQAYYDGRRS

CN(C)CCCN1c2ccccc2Sc2ccc(Cl)cc21 [chlorpromazine]
inhibition of the accumulation of PrPsc (resistant to proteinase K): 96%
